Several values for one entry are separate records, joined by “and”; a condition that tells them apart may be missing. Equal values may be shown once. Marks after values point to notes of the source that are not given here.
Columns and labels:
E. coli AID#172 [1] = test: Neutropenic murine peritonitis/sepsis model, dose-response and estimation of ED50 (Example 2); assay type: in vivo, Escherichia coli; set-up: key to Clinical score T = 0 hour / Clinical score T = 5 hours: Score 0: Healthy.; Score 1: Minor clinical signs of infection and inflammation e.g. observations of minor signs of distress or changed activity.; Score 2: Clear signs of infection like, social withdrawal, lack of curiosity, changed body position, piloerection, or changes in pattern of movement.; Score 3: Severe signs of infection like stiff movements, lack of curiosity, changed body position, piloerection, pain, or changes in pattern of movement.; Score 4: Severe pain and the mouse was sacrificed immediately to minimize the suffering of the animal.; Score 5: The mouse was dead
Protocol: The purpose of this study was to investigate the dose-response relationship following intravenous (i.v.) administration of a single dose of NZ17074 ranging from 0.16-12 mg/kg. The effect was tested against E. coli AID#172 in the neutropenic peritonitis model. Treatment with 40 mg/kg meropenem was included as a positive control group. The colony counts in blood and peritoneal fluid were determined at 5 hours after treatment.
The murine peritonitis/sepsis model is a well-recognized model for studies of antimicrobial activity as described by N. Frimodt-Møller and J. D. Knudsen in Handbook of Animal Models of Infection (1999), ed. by O. Zak & M. A. Sande, Academic Press, San Diego, US.
• 30 outbred, NMRI female mice, 25-30 grams (Harlan Scandinavia) • E. coli AID#172 from Statens Serum Institute, Copenhagen, Denmark. Clinical isolate from a human wound from 2003. Multiresistant (Ampicillin, Ceftazidime, Aztreonam, Gentamicin, Ciprofloxacin) • NZ17074 in Ringer Acetate, pH 6: 1.2 mg/ml, 6.0 ml. The solution was stored at 4° C. until use. Analyses of the dose formulations used were performed after completion of the in-life phase of the study and gave the following results:
The mice were rendered neutropenic by injecting 0.5 ml cyclophosphamide solution intraperitoneally 4 days (200 mg/kg) and 1 day (100 mg/kg) prior to inoculation.
Fresh overnight E. coli AID#172 colonies from a 5% Horse Blood Agar plate were suspended and diluted in sterile saline to approximately 2×10^6 CFU/ml. One hour before start of treatment (time −1 hr) mice were inoculated intraperitoneally with 0.5 ml of the E. coli suspension in the lateral lower quadrant of the abdomen. Approximately ½-1 hour after treatment, mice were treated orally with 45 microliters neurophen (20 mg ibuprofen/ml corresponding to 30 mg/kg) as a pain relief.
The mice were treated i.v. in the lateral tail vein over approximately 30 seconds with 10 ml/kg with a single dose of NZ17074, meropenem or vehicle at time 0 hour (see Table 1). The dosing was based on a mean weight of 30 g. Mice that weighed 28-32 g received 0.30 ml solution. Mice that weighed 27-28 g received 0.25 ml solution and mice that weighed 32.1-36 g received 0.35 ml solution.
(§1) The mice were observed during the study and scored 0-5 based on their behaviour and clinical signs. • Score 0: Healthy. • Score 1: Minor clinical signs of infection and inflammation e.g. observations of minor signs of distress or changed activity. • Score 2: Clear signs of infection like, social withdrawal, lack of curiosity, changed body position, piloerection, or changes in pattern of movement. • Score 3: Severe signs of infection like stiff movements, lack of curiosity, changed body position, piloerection, pain, or changes in pattern of movement. • Score 4: Severe pain and the mouse was sacrificed immediately to minimize the suffering of the animal. • Score 5: The mouse was dead.
Colony counts were determined from blood and peritoneal fluid at 0 and 5 hours. The mice were anaesthetized with CO2+O2 and blood was collected from axillary cutdown in 1.5 ml EDTA coated eppendorf tubes. The mice were sacrificed immediately after blood sampling and a total of 2 ml sterile saline was injected i.p. and the abdomen gently massaged before it was opened and fluid sampled with a pipette. Each sample was then 10 fold diluted in saline and 20-microliter spots were applied on blue agar plates. All agar plates were incubated 18-22 hours at 35° C. in ambient air.
The colony counts were performed at the start of treatment and 5 hours after treatment. The CFU numbers are log10 transformed before performing calculations.

E. coli AID#172 [2] = test: Neutropenic thigh infection model, dose-response and estimation of ED50 (Example 4); assay type: in vivo, Escherichia coli
Protocol: The purpose of this study was to investigate the dose-response relationship following intravenous (i.v.) administration of a single dose of NZ17074 ranging from 0.16-12 mg/kg. The effect was tested against E. coli AID#172 in the neutropenic thigh model. Treatment with 40 mg/kg meropenem was included as a positive control group. The colony counts in thighs were determined at 5 hours after treatment.
The thigh infection model is a well-recognized model for studies of antimicrobial effect and tissue penetration as described by S. Gudmundsson & H. Erlensdóttir: Handbook of Animal Models of Infection (1999), ed. by O. Zak & M. A. Sande, Academic Press, San Diego, US and in several publications. Reviewed by D. Andes & C. Craig: Animal model pharmacokinetics and pharmacodynamics: a critical review. International Journal of Antimicrobial Agents 19(4): 261-268.
• 40 outbred, NMRI female mice, 25-30 grams (Harlan Scandinavia) • E. coli AID#172 from Statens Serum Institute, Copenhagen, Denmark: Clinical isolate from a human wound from 2003. Multiresistant (Ampicillin, Ceftazidime, Aztreonam, Gentamicin, Ciprofloxacin) • NZ17074 in Ringer Acetate, pH 6: 1.2 mg/ml, 6.0 ml. The solution was stored at 4° C. until use. Analyses of the dose formulations used were performed after completion of the in-life phase of the study and gave the following results: […]
as §1
Colony counts were determined from thighs at 0 and 5 hours. […]

C[C@@H](O)[C@H]1C(=O)N2C(C(=O)O)=C(S[C@@H]3CN[C@H](C(=O)N(C)C)C3)[C@H](C)[C@H]12 [meropenem]
CFU levels in blood and peritoneal fluid compared to vehicle (E. coli AID#172 [1]; 40 mg/kg i.v., 5 hours, blood p<0.05, peritoneal fluid p<0.01): significant reduction | Clinical score T = 0 hour (E. coli AID#172 [1]; Meropenem 40 mg/kg single dose group, score at start of treatment, individual mice): 1 | log10 CFU Mean Blood (E. coli AID#172 [1]; Meropenem 40 mg/kg single dose, blood, T = 5, group mean, p < 0.05 vs vehicle): 2.38* log10 CFU/ml | log10 CFU Blood (E. coli AID#172 [1]; Meropenem 40 mg/kg single dose, blood, T = 5, individual mice): 2.48 log10 CFU/ml and 1.70 log10 CFU/ml and 2.95 log10 CFU/ml | Clinical score T = 5 hours (E. coli AID#172 [1]; Meropenem 40 mg/kg single dose, individual mice): 1 (2×) and 0 | log10 CFU mean PF (E. coli AID#172 [1]; Meropenem 40 mg/kg single dose, peritoneal fluid, T = 5, group mean, p < 0.01 vs vehicle): 2.64** log10 CFU/ml | log10 CFU PF (E. coli AID#172 [1]; Meropenem 40 mg/kg single dose, peritoneal fluid, T = 5, individual mice): 3.92 log10 CFU/ml and 1.70 log10 CFU/ml and 2.30 log10 CFU/ml | CFU levels in thigh compared to vehicle (E. coli AID#172 [2]; 40 mg/kg i.v., 5 hours): slight but not significant reduction | log10 CFU thigh mean (E. coli AID#172 [2]; Meropenem 40 mg/kg single dose, thigh, T = 5, group mean without outlier, not significant vs vehicle): 4.25 log10 CFU/ml | log10 CFU thigh (E. coli AID#172 [2]; Meropenem 40 mg/kg single dose, thigh, T = 5, individual mice, ¤ value excluded from mean as outlier): 3.08¤ log10 CFU/ml and 3.81¤ log10 CFU/ml and 4.99 log10 CFU/ml and 3.94 log10 CFU/ml

From patent US20160158317A1, “Antimicrobial Peptide Variants and Polynucleotides Encoding Same” (Adenium Biotech A/S, priority 2010, published 2016)
